From patent publication US20230355566A1, “POTENTIATION OF HELMINTH TREATMENT” (Elanco Tiergesundheit AG, priority 2019, published 2023)

Tests used:
liver flukes = settings: cited from earlier work
[1] = test system: Fasciola hepatica (Oberon isolate, Fashep-65), early immature stage; assay: Efficacy against early immature stage of Fasciola hepatica in experimentally infected sheep (Example 2); assay type: in vivo; settings: closantel 10 mg/kg, combination 60 and 10 mg/kg
Description: In the following examples, all animals were confirmed free of infection with F. hepatica and found clinically healthy by a veterinarian prior to enrollment in the study. Doses were administered orally from suitably sized disposable syringes.
The fluke counts and body weights were log-transformed (after adding a constant of 1 to the fluke counts only) and the distribution of the transformed data checked to see if they satisfied the assumption of normal distribution. Differences between treatment groups were analyzed by analysis of variance methods (ANOVA), as the assumptions of normal distribution were satisfied for log-transformed fluke count and log-transformed bodyweight, as well as for (untransformed) fluke measurements.
Arithmetic means (Amean), geometric means (Gmean), median and ranges were summarized for fluke counts, fluke measurements and bodyweight. A constant of one was applied for calculation of geometric means of fluke counts.
The percentage efficacy for each treated group was calculated as follows:
% Efficacy=100×(FCC−FCT)/FCC
where FCC is the arithmetic mean fluke count of the control group and FCT is the arithmetic mean fluke count of the treated group. The formula was also applied using mean geometric fluke counts; these were calculated using log transformed data with 1 added as a constant to each fluke count and then subtracted following transformation.
Efficacy of Diamphenethide in Combination with Closantel in Oral Formulations Against the Early Immature Stage of Fasciola hepatica in Sheep
This study was to assess the efficacy of diamphenethide (60 mg/kg) given concurrently with closantel (10 mg/kg), diamphenethide alone (60 mg/kg), and closantel alone (10 mg/kg) against F. hepatica in sheep with treatment on day 14. This was a controlled, blinded, randomized study using […] Merino lambs.
On day 0, the sheep were experimentally infected with a target of 87 Oberon isolate (Fashep-65) F. hepatica metacercariae. The required number of metacercariae were prepared for infection in a water and 4% carboxymethylcellulose solution. Each infective dose was followed by water administered orally.
The sheep were randomized into treatment groups on the basis of day 11 body weight and allocated to groups as denoted in Table 2.1.
Body weight was determined on day 11 and doses were measured by volume and rounded to the nearest 0.1 mL. On day 14, and before feeding, the individual animals were treated once only with the Treatment in Table 2.1. Once the animals had been treated they were returned to their pens and fed within one hour. Untreated control animals were also fed at this time.
The liver with gall bladder and common bile duct intact were recovered on day 91 or 92 from each animal and processed for F. hepatica counts. […]

[2] = deacylation to DAMD; cited from earlier work
[3] = test system: Fasciola hepatica (Sunny Corner isolate, Fashep-66), immature stage; assay: Efficacy and synergy against immature stage of Fasciola hepatica in experimentally infected sheep (Example 3); assay type: in vivo; settings: closantel 3.75 mg/kg, combination 40 and 3.75 mg/kg; for % Efficacy using arithmetic mean / % Efficacy using geometric mean: single oral treatment day 42, diamphenethide 40 mg/kg, vs untreated control; for Fluke Count, arithmetic mean / Fluke Count, geometric mean: single oral treatment day 42 after infection, diamphenethide 40 mg/kg, live fluke in liver day 91
Description: In the following examples, all animals were confirmed free of infection with F. hepatica and found clinically healthy by a veterinarian prior to enrollment in the study. Doses were administered orally from suitably sized disposable syringes. The fluke counts and body weights were log-transformed (after adding a constant of 1 to the fluke counts only) and the distribution of the transformed data checked to see if they satisfied the assumption of normal distribution. Differences between treatment groups were analyzed by analysis of variance methods (ANOVA), as the assumptions of normal distribution were satisfied for log-transformed fluke count and log-transformed bodyweight, as well as for (untransformed) fluke measurements. Arithmetic […]), geometric […]), median and ranges were summarized for fluke counts, fluke measurements and bodyweight. A constant of one was applied for calculation of geometric means of fluke counts. The percentage efficacy for each treated group was calculated as follows: […] where FCC is the arithmetic mean fluke count of the control group and FCT is the arithmetic mean fluke count of the treated group. […] Note that expected synergy is defined as: […] Administered Concurrently with Closantel Against the Immature Stage of Fasciola hepatica Infections in Sheep This study was to assess the efficacy of […] (40 mg/kg) given concurrently with closantel (3.75 mg/kg), […] alone (40 mg/kg), and closantel alone (3.75 mg/kg) against F. hepatica in sheep (3-4 month Merino lambs) with treatment on day 42. This was a controlled, blinded, randomized study. On day 0, the sheep were experimentally infected with a single isolate of approximately 200 Sunny Corner ([…]-66) isolate F. hepatica metacercariae. The required number of […] up in carboxymethyl cellulose. Syringes were checked post-infection for retained […]. The infection was administered orally and each infective dose was followed by water administered orally. The sheep were randomized into treatment groups on the basis of day 41 body weight and allocated to groups as denoted in Table 3.1. Body weight was determined one day prior to treatment. All treatments were measured by volume and rounded to the nearest 0.1 mL. On day 42, and before feeding, the individual animals were treated once only with the treatment in Table 3.1. Once the animals had been treated they were returned to their pens and fed within one hour. Untreated control animals were also fed at this time. The liver with gall bladder and bile ducts intact were recovered from each animal on day 91 and processed for F. hepatica counts. The assessment of efficacy was based on the number of live fluke removed from the liver.

[4] = single oral treatment day 14, diamphenethide 60 mg/kg, vs untreated control
[5] = single oral treatment day 14 after infection, diamphenethide 60 mg/kg, live fluke in liver day 91 or 92

SMILES | Activity against early immature flukes (liver flukes; flukes up to 6 weeks of age) | Activity against flukes as they develop to maturity (liver flukes; maturing flukes) | % Efficacy using arithmetic mean [1, 4] [%] | % Efficacy using geometric mean [1, 4] [%] | Fluke Count, arithmetic mean [1, 5] | Fluke Count, geometric mean [1, 5] | Metabolism [2] | % Efficacy using arithmetic mean [3] [%] | % Efficacy using geometric mean [3] [%] | Fluke Count, arithmetic mean [3] | Fluke Count, geometric mean [3]
CC(=O)Nc1ccc(OCCOCCOc2ccc(NC(C)=O)cc2)cc1 [Diamphenethide, N-[4-[2-[2-(4-acetamidophenoxy)ethoxy]ethoxy]phenyl]acetamide] | highly effective | progressively lower activity | 98.3 | 98.4 | 0.3 | 0.3 | rapidly metabolized by deacylation | 36.1 | 41.5 | 57.6 | 50.9
Cc1cc(C(C#N)c2ccc(Cl)cc2)c(Cl)cc1NC(=O)c1cc(I)cc(I)c1O (stereo not drawn) [Closantel, N-[5-chloro-4-[(4-chlorophenyl)cyanomethyl]-2-methylphenyl]-2-hydroxy-3,5-diiodobenzamide] |  |  |  |  |  |  |  | 40.1 | 40.7 | 54.0 | 51.6
